# Reference: patent US9469650B2, “Melampomagnolide B derivatives” (BOARD OF TRUSTEES OF THE UNIVERSITY OF ARKANSAS, priority 2013, dated 2016)
# Like-named read-outs stand apart in the source and are kept apart here.
# Experiments:
# HCT-116 = experiment: panel of 60 human tumor cell lines, growth inhibition (Colon Cancer); conditions: HCT-116
# HT29 = experiment: as above; conditions: HT29
# TK-10 = experiment: panel of 60 human tumor cell lines, growth inhibition (Renal Cancer); conditions: TK-10
# UACC-62 = experiment: panel of 60 human tumor cell lines, growth inhibition (Melanoma); conditions: UACC-62
# SNB-75 = experiment: panel of 60 human tumor cell lines, growth inhibition (CNS Cancer); conditions: SNB-75
# SR = experiment: panel of 60 human tumor cell lines, growth inhibition (Leukemia)
# UACC-257 = experiment: panel of 60 human tumor cell lines, growth inhibition (Melanoma); conditions: UACC-257
# CCRF-CEM = experiment: panel of 60 human tumor cell lines, growth inhibition (Leukemia)
# MDA-MB-231/ATCC = experiment: panel of 60 human tumor cell lines, growth inhibition (Breast Cancer); conditions: MDA-MB-231/ATCC
# MDA-MB-468 = experiment: as above; conditions: MDA-MB-468
# SN12C = experiment: panel of 60 human tumor cell lines, growth inhibition (Renal Cancer)
# KM12 = experiment: panel of 60 human tumor cell lines, growth inhibition (Colon Cancer); conditions: KM12
# SK-MEL-2 = experiment: panel of 60 human tumor cell lines, growth inhibition (Melanoma); conditions: SK-MEL-2
# A549/ATCC = experiment: panel of 60 human tumor cell lines, growth inhibition (Non-Small Cell Lung Cancer); conditions: A549/ATCC
# OVCAR-3 = experiment: panel of 60 human tumor cell lines, growth inhibition (Ovarian Cancer); conditions: OVCAR-3
# OVCAR-8 = experiment: as above; conditions: OVCAR-8
# SK-MEL-28 = experiment: panel of 60 human tumor cell lines, growth inhibition (Melanoma); conditions: SK-MEL-28
compound,measurement,setting,value
C=C1C(=O)O[C@H]2[C@H]1CC/C(COC(=O)N1CCC(F)(F)CC1)=C\CC[C@@]1(C)O[C@@H]21 [JVM 2-66],GI50,HCT-116,1410 nM
same,TGI,HCT-116,3.30E−6
same,Percent Growth,HCT-116; Log10 Concentration −4.0,−100%
same,Percent Growth,HCT-116; Log10 Concentration −5.0,−65%
same,Percent Growth,HCT-116; Log10 Concentration −6.0,70%
same,Percent Growth,HCT-116; Log10 Concentration −7.0,93%
same,Percent Growth,HCT-116; Log10 Concentration −8.0,99%
same,GI50,HT29,3300 nM
same,TGI,HT29,1.05E−5
same,Percent Growth,HT29; Log10 Concentration −4.0,−84%
same,Percent Growth,HT29; Log10 Concentration −5.0,2%
same,Percent Growth,HT29; Log10 Concentration −6.0,102%
same,Percent Growth,HT29; Log10 Concentration −7.0,101%
same,Percent Growth,HT29; Log10 Concentration −8.0,97%
same,GI50,TK-10,2600 nM
same,TGI,TK-10,6.55E−6
same,Percent Growth,TK-10; Log10 Concentration −4.0,−96%
same,Percent Growth,TK-10; Log10 Concentration −5.0,−23%
same,Percent Growth,TK-10; Log10 Concentration −6.0,102%
same,Percent Growth,TK-10; Log10 Concentration −7.0,95%
same,Percent Growth,TK-10; Log10 Concentration −8.0,94%
same,GI50,UACC-62,2110 nM
same,TGI,UACC-62,6.00E−6
same,Percent Growth,UACC-62; Log10 Concentration −4.0,−94%
same,Percent Growth,UACC-62; Log10 Concentration −5.0,−24%
same,Percent Growth,UACC-62; Log10 Concentration −6.0,86%
same,Percent Growth,UACC-62; Log10 Concentration −7.0,94%
same,Percent Growth,UACC-62; Log10 Concentration −8.0,97%
same,GI50,SNB-75,6130 nM
same,TGI,SNB-75,2.03E−5
same,Percent Growth,SNB-75; Log10 Concentration −4.0,−95%
same,Percent Growth,SNB-75; Log10 Concentration −5.0,42%
same,Percent Growth,SNB-75; Log10 Concentration −6.0,79%
same,Percent Growth,SNB-75; Log10 Concentration −7.0,75%
same,Percent Growth,SNB-75; Log10 Concentration −8.0,87%
same,GI50,SR,1380 nM
same,TGI,SR,7.24E−6
same,Percent Growth,SR; Log10 Concentration −4.0,−38%
same,Percent Growth,SR; Log10 Concentration −5.0,−10%
same,Percent Growth,SR; Log10 Concentration −6.0,60%
same,Percent Growth,SR; Log10 Concentration −7.0,87%
same,Percent Growth,SR; Log10 Concentration −8.0,94%
same,GI50,UACC-257,2340 nM
same,TGI,UACC-257,1.02E−5
same,Percent Growth,UACC-257; Log10 Concentration −4.0,−90%
same,Percent Growth,UACC-257; Log10 Concentration −5.0,1%
same,Percent Growth,UACC-257; Log10 Concentration −6.0,79%
same,Percent Growth,UACC-257; Log10 Concentration −7.0,96%
same,Percent Growth,UACC-257; Log10 Concentration −8.0,94%
same,GI50,CCRF-CEM,682 nM
same,TGI,CCRF-CEM,3.41E−6
same,Percent Growth,CCRF-CEM; Log10 Concentration −4.0,−53%
same,Percent Growth,CCRF-CEM; Log10 Concentration −5.0,−36%
same,Percent Growth,CCRF-CEM; Log10 Concentration −6.0,41%
same,Percent Growth,CCRF-CEM; Log10 Concentration −7.0,97%
same,Percent Growth,CCRF-CEM; Log10 Concentration −8.0,97%
same,GI50,MDA-MB-231/ATCC,2010 nM
same,TGI,MDA-MB-231/ATCC,6.59E−6
same,Percent Growth,MDA-MB-231/ATCC; Log10 Concentration −4.0,−84%
same,Percent Growth,MDA-MB-231/ATCC; Log10 Concentration −5.0,−18%
same,Percent Growth,MDA-MB-231/ATCC; Log10 Concentration −6.0,79%
same,Percent Growth,MDA-MB-231/ATCC; Log10 Concentration −7.0,92%
same,Percent Growth,MDA-MB-231/ATCC; Log10 Concentration −8.0,101%
same,GI50,MDA-MB-468,578 nM
same,TGI,MDA-MB-468,2.65E−6
same,Percent Growth,MDA-MB-468; Log10 Concentration −4.0,−75%
same,Percent Growth,MDA-MB-468; Log10 Concentration −5.0,−48%
same,Percent Growth,MDA-MB-468; Log10 Concentration −6.0,36%
same,Percent Growth,MDA-MB-468; Log10 Concentration −7.0,96%
same,Percent Growth,MDA-MB-468; Log10 Concentration −8.0,88%
same,GI50,HL-60(TB),2040 nM
same,TGI,HL-60(TB),7.15E−6
same,Percent Growth,HL-60(TB); Log10 Concentration −4.0,−49%
same,Percent Growth,HL-60(TB); Log10 Concentration −5.0,−13%
same,Percent Growth,HL-60(TB); Log10 Concentration −6.0,79%
same,Percent Growth,HL-60(TB); Log10 Concentration −7.0,84%
same,Percent Growth,HL-60(TB); Log10 Concentration −8.0,97%
same,CC50,HL-60(TB); read-out: LC50,> 100000 nM
same,GI50,SN12C,2720 nM
same,TGI,SN12C,1.06E−5
same,Percent Growth,SN12C; Log10 Concentration −4.0,−89%
same,Percent Growth,SN12C; Log10 Concentration −5.0,3%
same,Percent Growth,SN12C; Log10 Concentration −6.0,86%
same,Percent Growth,SN12C; Log10 Concentration −7.0,94%
same,Percent Growth,SN12C; Log10 Concentration −8.0,98%
same,GI50,KM12,8550 nM
same,TGI,KM12,2.26E−5
same,Percent Growth,KM12; Log10 Concentration −4.0,−85%
same,Percent Growth,KM12; Log10 Concentration −5.0,46%
same,Percent Growth,KM12; Log10 Concentration −6.0,99%
same,Percent Growth,KM12; Log10 Concentration −7.0,97%
same,Percent Growth,KM12; Log10 Concentration −8.0,103%
same,GI50,SK-MEL-2,2930 nM
same,TGI,SK-MEL-2,8.95E−6
same,Percent Growth,SK-MEL-2; Log10 Concentration −4.0,−84%
same,Percent Growth,SK-MEL-2; Log10 Concentration −5.0,−5%
same,Percent Growth,SK-MEL-2; Log10 Concentration −6.0,98%
same,Percent Growth,SK-MEL-2; Log10 Concentration −7.0,99%
same,Percent Growth,SK-MEL-2; Log10 Concentration −8.0,100%
same,GI50,A549/ATCC,11300 nM
same,TGI,A549/ATCC,2.74E−5
same,Percent Growth,A549/ATCC; Log10 Concentration −4.0,−73%
same,Percent Growth,A549/ATCC; Log10 Concentration −5.0,57%
same,Percent Growth,A549/ATCC; Log10 Concentration −6.0,93%
same,Percent Growth,A549/ATCC; Log10 Concentration −7.0,97%
same,Percent Growth,A549/ATCC; Log10 Concentration −8.0,98%
same,GI50,OVCAR-3,1690 nM
same,TGI,OVCAR-3,4.03E−6
same,Percent Growth,OVCAR-3; Log10 Concentration −4.0,−99%
same,Percent Growth,OVCAR-3; Log10 Concentration −5.0,−52%
same,Percent Growth,OVCAR-3; Log10 Concentration −6.0,80%
same,Percent Growth,OVCAR-3; Log10 Concentration −7.0,95%
same,Percent Growth,OVCAR-3; Log10 Concentration −8.0,101%
same,GI50,OVCAR-8,2830 nM
same,TGI,OVCAR-8,1.01E−5
same,Percent Growth,OVCAR-8; Log10 Concentration −4.0,−86%
same,Percent Growth,OVCAR-8; Log10 Concentration −6.0,91%
same,Percent Growth,OVCAR-8; Log10 Concentration −7.0,96%
same,Percent Growth,OVCAR-8; Log10 Concentration −8.0,98%
same,GI50,SK-MEL-28,2510 nM
same,TGI,SK-MEL-28,7.42E−6
same,Percent Growth,SK-MEL-28; Log10 Concentration −4.0,−84%
same,Percent Growth,SK-MEL-28; Log10 Concentration −5.0,−14%
same,Percent Growth,SK-MEL-28; Log10 Concentration −6.0,92%
same,Percent Growth,SK-MEL-28; Log10 Concentration −7.0,94%
same,Percent Growth,SK-MEL-28; Log10 Concentration −8.0,102%
